Test results as given in patent US10150766B2, “P2X7 modulators” (Jansssen Pharmaceutica NV, priority 2014, dated 2018).
Read-outs that look alike come from different tables or passages of the source.

Key:
[1] = target: T1, P2X7 (Homo sapiens (Human), UniProt Q99572); assay: P2X7 antagonism in human peripheral blood mononuclear cells (PBMCs), IL-1β release (LPS + Bz-ATP, ELISA); format: cell-based; conditions: P2X7, 10 μM test compound, LPS 30 ng/ml + Bz-ATP 0.5 mM, read-out: PBMC @10 μM (% control)
T1 sequence (Q99572 whole entry): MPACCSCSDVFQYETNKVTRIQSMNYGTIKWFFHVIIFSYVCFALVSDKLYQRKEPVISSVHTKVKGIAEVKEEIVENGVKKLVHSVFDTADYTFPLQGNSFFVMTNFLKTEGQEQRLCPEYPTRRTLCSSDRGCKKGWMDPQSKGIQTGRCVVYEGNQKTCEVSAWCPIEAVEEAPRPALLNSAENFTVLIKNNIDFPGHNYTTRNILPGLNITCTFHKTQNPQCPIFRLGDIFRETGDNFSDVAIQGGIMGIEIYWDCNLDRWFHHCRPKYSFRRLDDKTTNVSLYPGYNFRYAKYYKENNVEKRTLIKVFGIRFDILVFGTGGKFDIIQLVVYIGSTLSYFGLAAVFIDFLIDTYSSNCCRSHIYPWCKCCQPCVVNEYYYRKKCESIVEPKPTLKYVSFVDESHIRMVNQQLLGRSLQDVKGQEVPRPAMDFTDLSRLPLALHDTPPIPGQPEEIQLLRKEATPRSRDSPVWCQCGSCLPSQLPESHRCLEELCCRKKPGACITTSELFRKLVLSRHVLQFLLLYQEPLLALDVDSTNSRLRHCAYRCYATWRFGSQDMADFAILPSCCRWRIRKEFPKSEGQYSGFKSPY

[2] = target: T1, P2X7; assay: Radioligand binding ([3H]A-804598) to membranes of human P2X7-1321N1 cells; conditions: human P2X7-1321N1 membranes, tracer tritiated A-804598, 1 hour at 4° C.
Description: P2X7 Antagonism in Recombinant Human P2X7 Cells or Recombinant Rat P2X7 Cells:
human or rat P2X7-1321N1 cells were collected and frozen @ −80° C. On the day of the experiment, cell membrane preparations were made according to standard published methods. […] The compound can be prepared as described in the literature. […] The assay was terminated by filtration (GF/B filters pre-soaked with 0.3% PEI) and washed with washing buffer (Tris-HCl 50 mM). The IC50 generated in the binding assay was corrected for tracer concentration and affinity of the tracer to derive at the affinity (Ki) of the test compounds. The data are presented in Table 2 under the headings: P2X7 human Ki (μM) and P2X7 rat Ki (μM). Data are analyzed and graphed on Graphpad Prism 5. For analysis, each concentration point is averaged from triplicate values and the averaged values are plotted on Graphpad Prism.

[3] = target: rat P2X7 (Rattus norvegicus (Rat), UniProt Q64663); assay: P2X7 antagonism in recombinant rat P2X7 cells (column headed P2X7 Rat IC50); format: binding
Chain of rat P2X7 (Q64663 whole entry): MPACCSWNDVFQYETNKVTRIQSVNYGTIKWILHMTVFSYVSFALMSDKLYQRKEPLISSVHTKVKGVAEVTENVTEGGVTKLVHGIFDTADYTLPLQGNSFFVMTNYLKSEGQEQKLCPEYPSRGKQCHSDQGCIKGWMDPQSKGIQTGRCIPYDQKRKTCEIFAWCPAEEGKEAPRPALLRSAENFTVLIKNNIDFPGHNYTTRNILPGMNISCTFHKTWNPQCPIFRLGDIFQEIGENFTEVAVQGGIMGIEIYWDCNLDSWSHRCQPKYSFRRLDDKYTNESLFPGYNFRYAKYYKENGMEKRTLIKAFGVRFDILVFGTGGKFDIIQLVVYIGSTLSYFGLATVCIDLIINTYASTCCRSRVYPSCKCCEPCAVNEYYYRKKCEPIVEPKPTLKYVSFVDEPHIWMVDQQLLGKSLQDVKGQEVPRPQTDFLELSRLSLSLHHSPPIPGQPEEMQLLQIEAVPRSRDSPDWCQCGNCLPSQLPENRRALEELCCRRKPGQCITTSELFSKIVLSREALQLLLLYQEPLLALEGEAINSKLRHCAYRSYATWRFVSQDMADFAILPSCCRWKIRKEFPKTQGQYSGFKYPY

[4] = target: T1, P2X7; assay: P2X7 antagonism in human whole blood, IL-1β release (LPS + Bz-ATP, ELISA); format: cell-based; conditions: LPS 30 ng/ml + Bz-ATP 1 mM
[5] = read-out: Human Whole Blood IC50

SMILES	remaining activity at 10 µM [1] [%]	Ki [2] [nM]	IC50 [3] [nM]	IC50 ([4]; Human Whole Blood IC50 (μM)) [µM]	IC50 [4, 5] [µM]
Cc1nc(-c2ccc(F)cc2)c2c(n1)[C@H]1CCC[C@@H](C2)N1C(=O)c1cccc(C(F)(F)F)c1Cl [Example 51, (2-chloro-3-(trifluoromethyl)phenyl)((6S,10R)-4-(4-fluorophenyl)-2-methyl-5,6,7,8,9,10-hexahydro-6,10-epiminocycloocta[d]pyrimidin-11-yl)methanone]	-3	44.7	16.6	0.043	
Cc1nc(-c2ccn[nH]2)c2c(n1)[C@H]1CCC[C@@H](C2)N1C(=O)c1ccc(F)c(Cl)c1Cl [Example 25, (2,3-dichloro-4-fluorophenyl)((6S,10R)-2-methyl-4-(1H-pyrazol-5-yl)-5,6,7,8,9,10-hexahydro-6,10-epiminocycloocta[d]pyrimidin-11-yl)methanone]	-10.2	20	18.7	0.025	
Cc1nc(-c2ccnn2C)c2c(n1)[C@H]1CCC[C@@H](C2)N1C(=O)c1cccc(C(F)(F)F)c1Cl [Example 56, (2-chloro-3-(trifluoromethyl)phenyl)((6S,10R)-2-methyl-4-(1-methyl-1H-pyrazol-5-yl)-5,6,7,8,9,10-hexahydro-6,10-epiminocycloocta[d]pyrimidin-11-yl)methanone]	-2.9	100	11.6	0.048	
Cc1nc(-c2ccn[nH]2)c2c(n1)[C@H]1CCC[C@@H](C2)N1C(=O)c1ccc(F)cc1Cl [Example 22, (2-chloro-4-fluorophenyl)((6S,10R)-2-methyl-4-(1H-pyrazol-5-yl)-5,6,7,8,9,10-hexahydro-6,10-epiminocycloocta[d]pyrimidin-11-yl)methanone]	26.8	316	> 10000		0.286
Cc1nc(-c2ccnn2C)c2c(n1)[C@H]1CCC[C@@H](C2)N1C(=O)c1ccc(Cl)c(F)c1Cl [Example 58, (2,4-dichloro-3-fluorophenyl)((6S,10R)-2-methyl-4-(1-methyl-1H-pyrazol-5-yl)-5,6,7,8,9,10-hexahydro-6,10-epiminocycloocta[d]pyrimidin-11-yl)methanone]	-3.3	93.3	805		0.13
Cc1nc(-c2ccn[nH]2)c2c(n1)[C@H]1CCC[C@@H](C2)N1C(=O)c1ccnc(C(F)(F)F)c1F [Example 27, (3-fluoro-2-(trifluoromethyl)pyridin-4-yl)((6S,10R)-2-methyl-4-(1H-pyrazol-5-yl)-5,6,7,8,9,10-hexahydro-6,10-epiminocycloocta[d]pyrimidin-11-yl)methanone]	-10.2	151	132		0.172
Cc1nc(-c2ccn[nH]2)c2c(n1)[C@H]1CCC[C@@H](C2)N1C(=O)c1cccc(C(F)(F)F)c1C [Example 21, (2-methyl-3-(trifluoromethyl)phenyl)((6S,10R)-2-methyl-4-(1H-pyrazol-5-yl)-5,6,7,8,9,10-hexahydro-6,10-epiminocycloocta[d]pyrimidin-11-yl)methanone]	-26.4	31.6	33.2	0.026	
Cc1nc(-c2ccn[nH]2)c2c(n1)[C@H]1CCC[C@@H](C2)N1C(=O)c1cccc(Cl)c1Cl [Example 29, (2,3-dichlorophenyl)((6S,10R)-2-methyl-4-(1H-pyrazol-5-yl)-5,6,7,8,9,10-hexahydro-6,10-epiminocycloocta[d]pyrimidin-11-yl)methanone]	-22.9	20	206	0.008	
Cc1nc(-c2ncccn2)c2c(n1)[C@H]1CCC[C@@H](C2)N1C(=O)c1cccc(Cl)c1Cl [Example 45, (2,3-dichlorophenyl)((6S,10R)-2-methyl-4-(pyrimidin-2-yl)-5,6,7,8,9,10-hexahydro-6,10-epiminocycloocta[d]pyrimidin-11-yl)methanone]	-14.2	25.1	128	0.064	
Cc1nc(-c2ccnn2C)c2c(n1)[C@H]1CCC[C@@H](C2)N1C(=O)c1cccc(C(F)(F)F)c1C [Example 57, (2-methyl-3-(trifluoromethyl)phenyl)((6S,10R)-2-methyl-4-(1-methyl-1H-pyrazol-5-yl)-5,6,7,8,9,10-hexahydro-6,10-epiminocycloocta[d]pyrimidin-11-yl)methanone]	-0.3	190	597		0.191
Cc1nc(-c2ncccn2)c2c(n1)[C@H]1CCC[C@@H](C2)N1C(=O)c1cccc(C(F)(F)F)c1Cl [Example 41, (2-chloro-3-(trifluoromethyl)phenyl)((6S,10R)-2-methyl-4-(pyrimidin-2-yl)-5,6,7,8,9,10-hexahydro-6,10-epiminocycloocta[d]pyrimidin-11-yl)methanone]	-5.6	29.5	15.8	0.021	
Cc1nc(-c2ccc(F)cc2)c2c(n1)[C@H]1CCC[C@@H](C2)N1C(=O)c1cccc(C(F)(F)F)c1C [Example 53, ((6S,10R)-4-(4-fluorophenyl)-2-methyl-5,6,7,8,9,10-hexahydro-6,10-epiminocycloocta[d]pyrimidin-11-yl)(2-methyl-3-(trifluoromethyl)phenyl)methanone]	0	31.6	191		0.131
Cc1nc(-c2ccnn2C)c2c(n1)[C@H]1CCC[C@@H](C2)N1C(=O)c1cccc(Cl)c1Cl [Example 59, (2,3-dichlorophenyl)((6S,10R)-2-methyl-4-(1-methyl-1H-pyrazol-5-yl)-5,6,7,8,9,10-hexahydro-6,10-epiminocycloocta[d]pyrimidin-11-yl)methanone]	-1.8	135	1090		0.372
